One test has as its system Escherichia coli (α). Description: Screening of secretion efficiency, alkaline phosphatase expressing strain. Type of test: cell-based. The settings on record: surfactant 1 wt %; 37° C., 1 hour; ELISA, anti-His-tag antibody. From the text: An alkaline phosphatase (phoA) gene of an Escherichia coli strain W3110 was amplified by the PCR method using primers 1 and 2 (Table 4). After being treated with restriction enzymes NdeI and BamHI, a PCR fragment was bound with an NdeI restriction enzyme site and with a BamHI restriction enzyme site of a pET-22b plasmid (product of Novagen). Then, the plasmid was transformed into an AG1 (DE3) Escherichia coli strain formed by transforming an Escherichia coli strain AG1 (product of TOYOBO Co., LTD.) with use of a λDE3 Lysogenization Kit (product of Novagen). In this manner, an alkaline phosphatase expressing strain (a) was formed.
A pdxA gene of an Escherichia coli strain W3110 was amplified by the PCR method using primers 5 and 6 (Table 4). After being treated with restriction enzymes NdeI and BamHI, a PCR fragment was bound to an NdeI restriction enzyme site and a BamHI restriction enzyme site of a pET-22b plasmid (product of Novagen). Then, the plasmid was transformed into an AG1 (DE3) Escherichia coli strain to form a PdxA expressing strain (γ).
In this manner, culture solutions were prepared.
(2) The strains were collected using a centrifuge (4,000 G, 4° C., 15 minutes). Each of the collected Escherichia coli strains was resuspended in 1 mL of a TB culture solution (product of Difco) and chloramphenicol (30 mg/L) and IPTG (100 μM) were added thereto. Shake culture at 37° C. for 3 hours induced expression of phoA, torA, and pdxA.
(3) Subsequently, harvesting using a centrifuge was carried out again (4,000 G, 4° C., 15 minutes). Each of the collected Escherichia coli strains was resuspended in 2.5 mL of a Tris-NaCl buffer solution (50 mM Tris (pH 7.5), 100 mM NaCl). The resulting solution was divided into 25-μL portions at a time to be mixed with 25 μL of a Tris-NaCl buffer solution.
(4) Then, the solution was allowed to stand at 37° C. for 1 hour. The supernatant solution was collected and diluted in a Tris-NaCl buffer solution to a proper concentration. Here, the quantification of the recombinant protein in the resulting solution was carried out by ELISA assay with use of an anti-His-tag antibody. The sample prior to the centrifugation in the process (3) was treated with ultrasonic waves (200 W, 10 minutes) and the quantification of the recombinant protein therein was similarly carried out by ELISA assay with use of an anti-His-tag antibody. The ratio of lysed bacteria was obtained with use of Escherichia coli (γ), and the secretion efficiencies of the recombinant proteins of Escherichia coli (α) and (β) were calculated by using the following formula. […] Secretion efficiency (%)=100×{(X/Y)−Z}.
In the formula, “X” represents the amount of the recombinant protein in the culture solution after removal of bacterial cells by centrifugation in the case of using Escherichia coli (α) or (β).
“Y” represents the amount of the whole recombinant protein in the culture solution in the case of using Escherichia coli (α) or (β).
“Z” represents the ratio of lysed bacteria obtained with use of Escherichia coli (γ), which is determined by the following formula: Z=Z1/Z2.
In the formula, “Z1” represents the amount of the recombinant protein in the culture solution which remains after removal of bacterial cells by centrifugation in the case of using Escherichia coli (γ).
“Z2” represents the amount of the whole recombinant protein in the culture solution in the case of using Escherichia coli (γ).
Escherichia coli (α) and (β) were each cultured in the same manner as in the above case except that polyoxyethylene (3 mol) tridecyl ether sodium acetate as the surfactant (A) was added right after the resuspension of the Escherichia coli in the buffer solution in the process (3) of A-0, in an amount of 1% by weight on the basis of the weight of the suspension of the bacterium. The secretion efficiency was calculated according to the above-mentioned definition.
In general terms: An ELISA detects its analyte on a solid surface through an enzyme-linked reagent.

For the next test, the system named is Shewanella putrefaciens. The experiment in a line: Production by secretion in microbial culture system, Shewanella (Table 6). It is filed as cell-based. The following applies: surfactant 1 wt %; for Dried cell density: after 48 hours culturing; for Quantitative value of produced recombinant protein: supernatant, protein band around 45 kDa, SDS-PAGE. Here is the method: An overnight culture solution (10 ml) of Shewanella putrefaciens was prepared and inoculated in 1 L of a culture solution (10 g of polypeptone (Nihon Pharmaceutical Co., Ltd.), 2 g of yeast extract (Nihon Pharmaceutical Co., Ltd.), 0.5 g of magnesium sulfate heptahydrate, 750 mL of Seawater (Daigo)) and was shake-cultured at 30° C. for 5 hours. In this manner a pre-culture solution was prepared. The pre-culture solution was inoculated in 10 L of a culture solution (200 g of polypeptone (Nihon Pharmaceutical Co., Ltd.), 40 g of yeast extract (Nihon Pharmaceutical Co., Ltd.), 10 g of magnesium sulfate heptahydrate, 7.5 L of Seawater (Daigo)). Culturing thereof was initiated with use of a microbial culture system (ABLE Corporation), while the pH value and the temperature were maintained at 7.3 and 30° C. After 48 hours from the initiation of culturing, the culture solution was recovered and centrifuged. The whole protein of the obtained supernatant fragment was analyzed by SDS-PAGE and the protein band around 45 kDa was quantified.
The dried cell density when the culturing is terminated was determined by the following processes (1) to (5):
The dried cell density was determined by assigning the measuring results in the process (5) and the process (1) and the volume (L) of the culture solution used in the process (2) to the following formula: Dried cell density (g/L)=([measuring result in process (5)]−[measuring result in process (1)])/0.1.
The same processes as in Comparative Example 5 were carried out except that, after culturing in the microbial culture system was initiated, the surfactant A-14 was added to the culture solution in an amount of 1% by weight on the basis of the weight of the culture solution.
The same processes as in Comparative Example 5 were carried out except that, after culturing in the microbial culture system was initiated, the surfactant A-7 was added to the culture solution in an amount of 1% by weight on the basis of the weight of the culture solution.

Here are results for 4 compounds from patent US9328369B2, “Process for production of useful substance, and surfactant for use in the process” (priority 2009, dated 2016).

Where only a bound is given, the exact number is not on record here.

For the compound `CCCCCCCCCCCCCCCC[N+](C)(C)C.[Cl-]` [A-14, Cetyl trimethyl ammonium chloride], the “Secretion efficiency (%) Escherichia coli (α)” value in the test with Escherichia coli (α) is 37.8%. In addition, in the test on Shewanella putrefaciens, the “Dried cell density” value amounted to 0.23 g/L and the “Quantitative value of produced recombinant protein” value is recorded as under 0.01 g/L.

Consider “Cured palm oil fatty acid amidopropyl dimethyl aminoacetate betaine [A-6]”, for which, in the test with Escherichia coli (α), the “Secretion efficiency (%) Escherichia coli (α)” value was 87.6%.

For the compound “Polyoxyethylene(3 mol)tridecyl ether sodium acetate [A-1]”, the “Secretion efficiency (%) Escherichia coli (α)” value in the test on Escherichia coli (α) came to 100.0%.

Regarding Sodium cocaminopropionate [A-7], the “Secretion efficiency (%) Escherichia coli (α)” value with Escherichia coli (α) came out at 85.0%. Also, in the test on Shewanella putrefaciens, the “Dried cell density” value is 2.32 g/L and the “Quantitative value of produced recombinant protein” value came out at 0.04 g/L.
